# Experiments:
# Test in all cases: relative viability (nuclei count vs DMSO), 5 days (fraction); higher = more cells survive
# [1] = compound: CN1CCN(CC1)C2=CC(=C(C=C2)NC3=NC=C4C(=N3)N(C5=CC=CC=C5C(=O)N4C)C)OC [XMD8-85] + Cc1cc(Nc2cc(N3CCN(C)CC3)nc(Sc3ccc(NC(=O)C4CC4)cc3)n2)n[nH]1 [Tozasertib] (partner 0.1 µM)
# How it was run: (§1)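 Nuclei were stained with Hoechst during a one-step fixation (final 0.05% Triton X-100, 1% formaldehyde, 1 ug/ml Hoechst) carried out 5 days after dosing, then counted on 4× images. The cells, lung cancer lines in 1536-well plates, had been dosed by pin tool the day after seeding with one drug alone or a fixed anchor-drug dose plus five library-drug doses (not always all listed) in √10 steps. Relative viability is the nuclei count in treated wells divided by that in vehicle wells, and each value is the median of duplicate plates.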
# [2] = compound: CN1CCN(CC1)C2=CC(=C(C=C2)NC3=NC=C4C(=N3)N(C5=CC=CC=C5C(=O)N4C)C)OC [XMD8-85] + N=C(N)NC(=N)NCCc1ccccc1 [Phenformin] (partner 250 µM)
# How it was run: as §1
# [3] = compound: O=C(O)C(Cc1ccccc1[N+](=O)[O-])=NNc1nc(-c2ccc(Cl)c(Cl)c2)cs1 (mixture of isomers) [4EGI-1] + CC(C)C[C@H](NC(=O)[C@H](Cc1ccccc1)NC(=O)c1cnccn1)B(O)O [Bortezomib] (partner 0.002 µM)
# How it was run: as §1
# [4] = compound: O=C(O)C(Cc1ccccc1[N+](=O)[O-])=NNc1nc(-c2ccc(Cl)c(Cl)c2)cs1 (mixture of isomers) [4EGI-1] + CS(=O)(=O)CCNCc1ccc(-c2ccc3ncnc(Nc4ccc(OCc5cccc(F)c5)c(Cl)c4)c3c2)o1 [Lapatinib] (partner 2 µM)
# How it was run: as §1
Cell Line,relative viability ([1]; first compound 0.08 µM),relative viability ([1]; first compound 0.253 µM),relative viability ([1]; first compound 0.8 µM),relative viability ([1]; first compound 2.53 µM),relative viability ([1]; first compound 8 µM),relative viability ([2]; first compound 0.08 µM),relative viability ([2]; first compound 0.253 µM),relative viability ([2]; first compound 0.8 µM),relative viability ([2]; first compound 2.53 µM),relative viability ([2]; first compound 8 µM),relative viability ([3]; first compound 0.5 µM),relative viability ([3]; first compound 1.581 µM),relative viability ([3]; first compound 5 µM),relative viability ([3]; first compound 15.81 µM),relative viability ([3]; first compound 50 µM),relative viability ([4]; first compound 0.5 µM),relative viability ([4]; first compound 1.581 µM),relative viability ([4]; first compound 5 µM),relative viability ([4]; first compound 15.81 µM),relative viability ([4]; first compound 50 µM)
COR-L23,0.222,0.216,0.197,0.163,0.144,0.384,0.452,0.484,0.476,0.366,0.983,0.651,1.09,0.808,0.19,1.13,0.826,0.981,0.536,0.14
NCI-H1793,0.277,0.322,0.297,0.289,0.255,0.402,0.409,0.38,0.375,0.317,–,–,–,–,–,0.637,0.886,0.556,0.814,0.402
NCI-H2085,0.745,0.913,0.791,0.644,0.502,0.805,0.734,0.752,0.626,0.516,1.14,1.04,1.16,0.964,0.517,0.857,0.769,0.807,0.586,0.357
SW 900,0.553,0.657,0.557,0.424,0.312,0.448,0.523,0.675,0.554,0.22,–,–,–,–,–,–,–,–,–,–
NCI-H358,0.106,0.0979,0.119,0.11,0.0877,0.301,0.314,0.312,0.385,0.167,–,–,–,–,–,0.483,0.437,0.603,0.395,0.211
Calu-6,–,–,–,–,–,–,–,–,–,–,0.982,0.877,1.15,0.989,0.33,1.07,1,1.03,1,0.206
NCI-H1299,–,–,–,–,–,–,–,–,–,–,1.02,1.04,0.993,0.997,1.02,0.932,0.957,1.02,0.987,0.357
A549,–,–,–,–,–,0.0975,0.198,0.149,0.274,0.193,–,–,–,–,–,1.15,1.04,1.09,0.77,0.0791
NCI-H2342,0.529,0.46,0.478,0.424,0.405,0.646,0.56,0.682,0.608,0.599,–,–,–,–,–,–,–,–,–,–
NCI-H1563,–,–,–,–,–,0.65,0.609,0.63,–,0.615,0.895,0.728,0.847,0.818,0.468,1.11,0.809,0.994,0.393,0.536

# Reference: the supplement of paper PMC10307832
